For the assay, the target named is T1, Human soluble guanylate cyclase enzyme (hsGC) (Homo sapiens, UniProt Q02108+Q02153).
T1 construct: purchased Enzo Inc. ALX-201-177
T1 sequence (Q02153 1-619): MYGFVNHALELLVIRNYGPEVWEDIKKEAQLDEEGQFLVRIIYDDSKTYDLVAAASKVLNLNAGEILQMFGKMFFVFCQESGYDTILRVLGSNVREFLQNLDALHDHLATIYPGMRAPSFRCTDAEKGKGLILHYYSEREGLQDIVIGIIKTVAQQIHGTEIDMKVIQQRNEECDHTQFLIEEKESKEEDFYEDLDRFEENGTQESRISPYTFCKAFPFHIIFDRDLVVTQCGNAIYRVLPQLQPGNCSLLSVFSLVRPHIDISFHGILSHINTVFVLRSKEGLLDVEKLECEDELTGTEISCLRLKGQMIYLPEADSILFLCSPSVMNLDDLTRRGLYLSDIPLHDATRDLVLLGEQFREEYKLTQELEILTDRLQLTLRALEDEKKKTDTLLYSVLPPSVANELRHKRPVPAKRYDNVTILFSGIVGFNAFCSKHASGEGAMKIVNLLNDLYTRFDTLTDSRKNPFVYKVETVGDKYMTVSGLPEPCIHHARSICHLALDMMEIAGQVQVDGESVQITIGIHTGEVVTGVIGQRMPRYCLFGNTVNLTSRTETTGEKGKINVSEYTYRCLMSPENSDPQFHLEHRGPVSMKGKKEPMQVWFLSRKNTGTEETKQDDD
T1 sequence (Q02108 1-690): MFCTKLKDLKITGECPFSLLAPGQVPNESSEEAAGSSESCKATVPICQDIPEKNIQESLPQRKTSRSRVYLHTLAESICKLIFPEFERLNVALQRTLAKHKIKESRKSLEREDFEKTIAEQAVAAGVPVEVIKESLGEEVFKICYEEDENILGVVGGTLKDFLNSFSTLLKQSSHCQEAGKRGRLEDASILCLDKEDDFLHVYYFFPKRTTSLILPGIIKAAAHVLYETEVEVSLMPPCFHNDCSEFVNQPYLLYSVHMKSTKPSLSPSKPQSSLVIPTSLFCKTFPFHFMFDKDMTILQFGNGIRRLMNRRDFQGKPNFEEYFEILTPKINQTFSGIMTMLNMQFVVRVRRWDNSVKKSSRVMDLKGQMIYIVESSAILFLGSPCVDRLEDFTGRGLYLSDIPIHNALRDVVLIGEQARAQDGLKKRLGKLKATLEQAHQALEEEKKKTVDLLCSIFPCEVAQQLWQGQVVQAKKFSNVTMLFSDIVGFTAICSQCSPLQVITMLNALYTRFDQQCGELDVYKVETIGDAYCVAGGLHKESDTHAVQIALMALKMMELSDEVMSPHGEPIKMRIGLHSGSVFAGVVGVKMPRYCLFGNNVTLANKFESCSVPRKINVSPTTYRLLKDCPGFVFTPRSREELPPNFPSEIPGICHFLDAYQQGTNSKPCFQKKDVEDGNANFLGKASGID
Description: Purified human sGC enzyme synergy assay in the presence of sodium nitroprusside (SNP). The class given is biochemical. The conditions noted are these: 30 μM compound, 1 μM SNP; fold change of specific activity vs DMSO control. As to the method:
Human soluble guanylate cyclase enzyme (hsGC) obtained from Enzo Inc. (P/N: ALX-201-177) was used to evaluate the activity of test compounds. The assay reactions contained 0.1 M Tris (pH 8.0), 0.5 mg/mL BSA (pH 8.0), 2 mM DTT, 2 mM MgCl2, 300 μM GTP, 1 mM 3-isobutyl-1-methylxanthine (IBMX) and 5 ng human soluble guanylate cyclase enzyme. Test compounds in DMSO were then added (2 μL, 10 or 30 μM final concentration) and incubated (water, 200 μL, 96-well plate format) at 37° C. for 30 minutes. The controls were carried out using 2 μL DMSO. After the 30 minute incubation, the reaction was stopped with the addition of 200 μL of cold methanol. The plate was then centrifuged at 3,200 rpm for 10 minutes at room temperature. Supernatants (200 μL) were collected and transferred to a new 96 well plate for analysis by HPLC LC/MS/MS.
An 8 point cGMP (Sigma-Aldrich P/N: G6129) standard curve was prepared in assay buffer ranging from 0.156-20 μM. Samples for the cGMP standard curve were then diluted with an equal volume of methanol resulting in final cGMP concentrations of 0.078-10 μM.
The cGMP standard curve was generated using GraphPad Prism Software.
Calculations: Specific Activity was determined by the amount of cGMP formed (nmoles) per mg of sGC per min. Enzyme “fold-change” was calculated by dividing Specific Activity for test compounds by Specific Activity of DMSO controls. […]

Data on one compound can be found in patent US9487508B2, “SGC stimulators” (IRONWOOD PHARMACEUTICALS, INC., priority 2012, dated 2016).

For the compound `Nc1ccnc(-n2cc(-c3ncco3)c(Cc3ccccc3F)n2)n1` [Compound I-2], the “Enzyme Activity (increase at 30 μM with SNP)” value is on record as “D (D = 10 or <20 fold increase)”.
